US8084479B2, “Thiazole compounds and methods of use” (Amgen Inc., priority 2006, dated 2011)

Target: PKBα (Homo sapiens, UniProt P31749)
Assay: PKB kinase assay (P33-labeled ATP, peptide substrate, filter plate)
Format: biochemical
Settings: PKBα enzyme (full length or kinase domain with pleckstrin domain deleted)
Description: The kinase assay for evaluating PKB activity comprises active PKB enzymes, a PKB specific substrate, and P^33-labeled ATP. […] The phosphorylated substrate was captured by a phosphocellulose membrane filter plate (MLLIPORE) and measured by a Wallac Microbeta liquid scintillation counter (Perkin Elmer).

Chain of PKBα (P31749 118-480 limits assumed): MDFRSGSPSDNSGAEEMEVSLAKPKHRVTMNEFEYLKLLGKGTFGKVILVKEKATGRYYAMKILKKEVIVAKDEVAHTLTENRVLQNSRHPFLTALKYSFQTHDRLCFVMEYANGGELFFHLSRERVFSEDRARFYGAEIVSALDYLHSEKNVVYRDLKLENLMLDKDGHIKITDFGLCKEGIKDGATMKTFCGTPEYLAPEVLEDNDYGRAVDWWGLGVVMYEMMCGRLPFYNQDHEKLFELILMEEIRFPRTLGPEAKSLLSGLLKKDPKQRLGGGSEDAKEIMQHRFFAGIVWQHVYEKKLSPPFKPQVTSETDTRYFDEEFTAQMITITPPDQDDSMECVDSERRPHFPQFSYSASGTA

**Q.** With `COc1ccc(C[C@H](N)CNc2ncc(-c3ccc4[nH]c(=O)oc4c3)s2)cc1` [Example 78, 6-(2-((S)-2-amino-3-(4-methoxyphenyl)propylamino)thiazol-5-yl)benzo[d]oxazol-2(3H)-one] as the compound, how does the IC50 read?
**A.** The IC50 was 0.05 to 1 µM.

**Q.** With `N[C@H](CNc1ncc(-c2ccc3[nH]c(=O)[nH]c3c2)s1)Cc1ccc(C(F)(F)F)cc1` [Example 193, 5-(2-((S)-2-amino-3-(4-(trifluoromethyl)-phenyl)propylamino)thiazol-5-yl)-1H-benzo[d]imidazol-2(3H)-one] as the compound, how does the IC50 read?
**A.** Its IC50 is 0.05 to 1 µM.

**Q.** With `N[C@H](CNc1ncc(-c2ccc3[nH]c(=O)oc3c2)s1)Cc1ccc(Cl)cc1` [Example 55, 6-(2-((S)-2-Amino-3-(4-chlorophenyl)propylamino)thiazol-5-yl)benzo[d]oxazol-2(3H)-one] as the compound, how does the IC50 read?
**A.** The IC50 was under 0.05 µM.

**Q.** For `N[C@H](CNc1ncc(-c2ccc3cnccc3c2)s1)Cc1ccc(C(F)(F)F)cc1` [Example 6, N—((S)-2-amino-3-(4-(trifluoromethyl)phenyl)propyl)-5-(isoquinolin-6-yl)thiazol-2-amine], which IC50 is on record?
**A.** The IC50 was under 0.05 µM.

**Q.** `Cn1c(=O)[nH]c2ccc(-c3cnc(NC[C@@H](N)Cc4cccc(C(F)(F)F)c4)s3)cc21` [Example 82, 6-(2-((S)-2-Amino-3-(3-(trifluoromethyl)phenyl)-propylamino)thiazol-5-yl)-1-methyl-1H-benzo[d]imidazol-2(3H)-one] was tested. Which IC50 did it give?
**A.** The IC50 was 0.05 to 1 µM.

**Q.** How did the IC50 turn out when `N[C@H](CNc1ncc(-c2ccc3[nH]c(=O)oc3c2)s1)Cc1cc(F)cc(F)c1` [Example 164, 6-(2-((S)-2-amino-3-(3,5-difluorophenyl)propylamino)thiazol-5-yl)benzo[d]oxazol-2(3H)one] was run?
**A.** Its IC50 is 0.05 to 1 µM.

**Q.** How did the IC50 turn out when `N[C@H](CNc1nc(CCO)c(-c2ccc3cnccc3c2)s1)Cc1ccc(C(F)(F)F)cc1` [Example 255, 2-(2-((S)-2-amino-3-(4-(trifluoromethyl)phenyl)propylamino)-5-(isoquinolin-6-yl)thiazol-4-yl)ethanol] was run?
**A.** Its IC50 is 0.05 to 1 µM.

**Q.** With `N[C@H](CNc1ncc(-c2ccc3[nH]c(=O)oc3c2)s1)Cc1ccc2ccccc2c1` [Example 204, 6-(2-((S)-2-amino-3-(naphthalen-2-yl)propylamino)thiazol-5-yl)benzo[d]oxazol-2(3H)-one] as the compound, how does the IC50 read?
**A.** Its IC50 is under 0.05 µM.

**Q.** How did the IC50 turn out when `N[C@H](CNc1ncc(-c2ccc3c(c2)CC(=O)N3)s1)Cc1ccc(Cl)c(Cl)c1` [Example 114, 5-(2-((S)-2-Amino-3-(3,4-dichlorophenyl)propylamino)thiazol-5-yl)indolin-2-one] was run?
**A.** Its IC50 is under 0.05 µM.

**Q.** `C[C@@H](Nc1ncc(-c2ccc3c(c2)CC(=O)N3)s1)[C@@H](N)Cc1ccc(C(F)(F)F)cc1` [Example 229, 5-(2-((2R,3S)-3-amino-4-(4-(trifluoromethyl)phenyl)butan-2-ylamino)thiazol-5-yl)indolin-2-one] was tested. Which IC50 did it give?
**A.** Its IC50 is under 0.05 µM.

**Q.** With `COC(=O)c1nc(NC[C@@H](N)Cc2ccc(C(F)(F)F)cc2)sc1-c1ccc2c(c1)CC(=O)N2` [Example 122, Methyl 2-((S)-2-amino-3-(4-(trifluoromethyl)phenyl)propylamino)-5-(2-oxoindolin-5-yl)thiazole-4-carboxylate] as the compound, how does the IC50 read?
**A.** The IC50 was 0.05 to 1 µM.

**Q.** Which IC50 does the source give for `CC(O)[C@@H](c1ccc(C(F)(F)F)cc1)[C@H](N)CNc1ncc(-c2ccc3c(c2)CC(=O)N3)s1` (stereo partly drawn) [Example 243, 5-(2-((2S,3S)-2-amino-4-hydroxy-3-(4-(trifluoromethyl)phenyl)pentylamino)thiazol-5-yl)indolin-2-one] here?
**A.** The IC50 was under 0.05 µM.

**Q.** For `N[C@H](CNc1nc(C2CCCO2)c(-c2ccc3cnccc3c2)s1)Cc1ccc(Cl)cc1` (stereo partly drawn) [Example 196, N—((S)-2-amino-3-(4-chlorophenyl)propyl)-5-(isoquinolin-6-yl)-4-(tetrahydrofuran-2-yl)thiazol-2-amine], which IC50 is on record?
**A.** Its IC50 is 0.05 to 1 µM.

**Q.** For `COC[C@@H](c1ccc(C(F)(F)F)cc1)[C@H](N)CNc1ncc(-c2ccc3c(c2)CC(=O)N3)s1` [Example 241, 5-(2-((2S,3S)-2-amino-4-methoxy-3-(4-(trifluoromethyl)phenyl)butylamino)thiazol-5-yl)indolin-2-one], which IC50 is on record?
**A.** The IC50 was under 0.05 µM.

**Q.** How did the IC50 turn out when `NC(CNc1ncc(-c2ccc3[nH]ncc3c2)s1)Cc1ccc(C(F)(F)F)c(F)c1F` (centres unmarked) [Example 190, N-(2-amino-3-(2,3-difluoro-4-(trifluoromethyl)phenyl)propyl)-5-(1H-indazol-5-yl)thiazol-2-amine] was run?
**A.** Its IC50 is under 0.05 µM.

**Q.** Which IC50 does the source give for `CNc1n[nH]c2ccc(-c3cnc(NC[C@@H](N)Cc4c[nH]c5ccccc45)s3)cc12` [Example 45, 5-(2-((S)-2-amino-3-(1H-indol-3-yl)propylamino)thiazol-5-yl)-N-methyl-1H-indazol-3-amine] here?
**A.** Its IC50 is 1 to 10 µM.

**Q.** For `COc1cc(C[C@H](N)CNc2ncc(-c3ccc4cnccc4c3)s2)ccc1C(F)(F)F` [Example 205, N—((S)-2-amino-3-(3-methoxy-4-(trifluoromethyl)phenyl)propyl)-5-(isoquinolin-6-yl)thiazol-2-amine], which IC50 is on record?
**A.** Its IC50 is under 0.05 µM.

**Q.** With `N[C@H](CNc1ncc(-c2cnc3c(c2)CC(=O)N3)s1)Cc1ccc(C(F)(F)F)nc1` [Example 227, 5-(2-((S)-2-amino-3-(6-(trifluoromethyl)pyridin-3-yl)propylamino)thiazol-5-yl)-1H-pyrrolo[2,3-b]pyridin-2(3H)-one] as the compound, how does the IC50 read?
**A.** The IC50 was 0.05 to 1 µM.

**Q.** How did the IC50 turn out when `N[C@H](CNc1ncc(-c2ccc3[nH]ncc3c2)s1)Cc1ccc(Cl)cc1` [Example 4, N—((S)-2-amino-3-(4-chlorophenyl)propyl)-5-(1H-indazol-5-yl)thiazol-2-amine] was run?
**A.** Its IC50 is under 0.05 µM.

**Q.** `N[C@H](CNc1nc(Br)c(-c2nc3ccncc3s2)s1)Cc1ccc(C(F)(F)F)cc1` [Example 111, N—((S)-2-Amino-3-(4-(trifluoromethyl)phenyl)propyl)-4-bromo-5-(thiazolo[5,4-c]pyridin-2-yl)thiazol-2-amine] was tested. Which IC50 did it give?
**A.** Its IC50 is 0.05 to 1 µM.

**Q.** How did the IC50 turn out when `CNc1cc2cc(-c3cnc(NC[C@@H](N)Cc4ccc(C(F)(F)F)cc4)s3)ccc2cn1` [Example 138, 6-(2-((S)-2-amino-3-(4-(trifluoromethyl)phenyl)propylamino)thiazol-5-yl)-N-methylisoquinolin-3-amine] was run?
**A.** Its IC50 is under 0.05 µM.

**Q.** How did the IC50 turn out when `COCc1nc(NC[C@@H](N)Cc2ccc(C(F)(F)F)cc2)sc1-c1ccc2cnccc2n1` [Example 71, N—((S)-2-amino-3-(4-(trifluoromethyl)phenyl)propyl)-4-(methoxymethyl)-5-(1,6-naphthyridin-2-yl)thiazol-2-amine] was run?
**A.** Its IC50 is under 0.05 µM.

**Q.** `N[C@H](CNc1ncc(-c2ccc3[nH]c(=O)sc3c2)s1)Cc1ccc(C(F)(F)F)cc1` [Example 43, 6-(2-((S)-2-amino-3-(4-(trifluoromethyl)phenyl)propylamino)thiazol-5-yl)benzo[d]thiazol-2(3H)-one] was tested. Which IC50 did it give?
**A.** The IC50 was under 0.05 µM.

**Q.** How did the IC50 turn out when `N[C@H](CNc1ncc(-c2ccc3c(c2)C2(CC2)C(=O)N3)s1)Cc1ccc(C(F)(F)F)cc1` [Example 199, 5′-(2-((S)-2-amino-3-(4-(trifluoromethyl)phenyl)propylamino)thiazol-5-yl)spiro[cyclopropane-1,3′-indol]-2′(1′H)-one] was run?
**A.** Its IC50 is 0.05 to 1 µM.

**Q.** How did the IC50 turn out when `N[C@@H](Cc1cccc(C(F)(F)F)c1)CN(Cc1ccccc1)c1ncc(-c2nc3ccncc3s2)s1` [Example 29, N—((S)-2-amino-3-(3-(trifluoromethyl)phenyl)propyl)-N-benzyl-5-(thiazolo[5,4-c]pyridin-2-yl)thiazol-2-amine] was run?
**A.** Its IC50 is 1 to 10 µM.

**Q.** How did the IC50 turn out when `NC(CNc1ncc(-c2ccc3[nH]c(=O)oc3c2)s1)Cc1ccc(O)c(F)c1` (centres unmarked) [Example 216, 6-(2-(2-Amino-3-(3-fluoro-4-hydroxyphenyl)propylamino)thiazol-5-yl)benzo[d]oxazol-2(3H)-one] was run?
**A.** The IC50 was 0.05 to 1 µM.
